Data: patent publication US20090247644A1, “MEMANTINE FORMULATIONS” (FOREST LABORATORIES HOLDINGS LIMITED, priority 2008, published 2009)
Where a name gives a salt, the structure may show the parent alone.

Experiments:
Type in all cases: physicochemical
[1] = Bulk density and tap density, Varian Tapped Density tester; settings: hydrochloride
Protocol: Bulk Density and Apparent Density after Tamping (Tap Density)
The bulk density and apparent density were measured using a Varian Tapped Density tester (Varian Inc.,) using the instructions provided by the vendor. Also see USP 29 (Tap-Bulk-Density).

[2] = Aspect ratio by scanning electron microscopy; settings: ratio of maximum length to minimum width; hydrochloride
From the text: The aspect ratio refers to the ratio of the maximum length of a crystal to its minimum width. At an aspect ratio of 1, a crystal has an isometric crystal habit. With the aspect ratio decreasing below 1, the crystal habit becomes more and more plate-like. In contrast, when the aspect ratio increases more and more above 1, the crystal approaches a needle-like crystal habit. In accordance with the present invention, cubic-shaped crystals of memantine hydrochloride have an aspect ratio of preferably below about 5, such as, below about 3 (3.0), e.g., below about 2 (2.0). The lower limit of the aspect ratio is not critical. The aspect ratio is determined by means of scanning electron microscopy (SEM). The sample is spread onto a pure aluminum support and subsequently sputter-coated with a thin layer of Pd/Au (thickness in the nanometer range; sputter coater SCD 030 (Balzers)). Using a JSM 6400 Scanning Electron Microscope (JEOL, Japan) at an acceleration voltage of 20 keV and a working distance of 15 mm, SEM images are taken at 150-fold magnification. Electronic filtering and thresholding is used to improve the separation of particles in binary images from the background. For image analysis, ANALYSIS software version 5.0 (SIS, Muenster, Germany) is used. […]

[3] = Angle of repose, Hosakawa Micron powder tester; settings: hydrochloride
Protocol: For pharmaceutical powders, a lower angle of repose value indicates better flow characteristics. The angle of repose was measured using a Hosakawa Micron powder tester, Model PT-N (Hosokawa Micron Powder systems, Summit, N.J.) using the instructions provided by the vendor. Also see Pharmaceutical Dosage Forms, Tablets, Volume 1, Herbert A. Lieberman, Leon Lachman, Joseph B. Schwartz, 1989, 2nd Ed.

[4] = Particle size distribution by laser diffraction; settings: equant: Helos BF with Rodos; needle: Mastersizer 2000; hydrochloride
Protocol: The particle size distribution (average d90, d50 and d10 values) of the equant-shaped crystals of memantine was measured by Laser Diffraction technique using a Helos BF with Rodos instrument (Sympatec Inc, Lawrenceville, N.J.). The particle size distribution of the needle-shaped crystals of memantine was measured using a Mastersizer 2000 instrument (Malvern Instruments Limited, Worcestershire, UK).

[5] = Flowability, Jenike and Johanson Sifting Segregation tester (time for 200 g to fall through hopper orifice); settings: 200 g material, hydrochloride
Protocol: The flowability of the equant-shaped crystals of memantine was measured using a Jenike and Johanson […] Segregation tester (Jenike and Johanson, Tyngsboro, Mass.). The time taken for 200 g of material to fall through the circular orifice of the hopper was measured. Two different hoppers were used: a shallow angle cone (Hopper A, 35° from horizontal) and a steep angle cone (Hopper B, 75° from horizontal). […] See, ASTM Standard D6941-03, and A. Alexander et al., Pharmaceutical Technology, Yearbook 2000, pp. 6-21.

[6] = Hopper A (shallow angle cone, 35° from horizontal)
[7] = Hopper B (steep angle cone, 75° from horizontal)

Bulk Density [1] [g/cc]	Compressibility Index [1]	Tap Density [1] [g/cc]	Aspect Ratio [2]	Angle of Repose [3] [°]	PSD d10 [4] [μm]	PSD d50 [4] [μm]	PSD d90 [4] [μm]	Flowability [5, 6]	Flowability ([5]; Hopper A (shallow angle cone, 35° from horizontal), listed as equant-shaped crystals)	Flowability [5, 7]	Flowability ([5]; Hopper B (steep angle cone, 75° from horizontal), listed as equant-shaped crystals)	Flowability ([5]; Hopper A (shallow angle cone, 35° from horizontal), listed as needle-shaped crystals)	Flowability ([5]; Hopper B (steep angle cone, 75° from horizontal), listed as needle-shaped crystals)	Compound
0.51	16	0.61	1.6	43.1	10	205	376	38.3 g/s	about 38 g/s	13.6 g/s	about 14 g/s	–	–	CC12CC3CC(C)(C1)CC(N)(C3)C2 [Equant-shaped crystals of Memantine HCl, memantine hydrochloride]
0.30	40	0.50	11.4	66.2	18.8	113.8	1229.4	Does not flow	–	Does not flow	–	do not flow	do not flow	CC12CC3CC(C)(C1)CC(N)(C3)C2 [Needle-shaped crystals of Memantine HCl, memantine hydrochloride]
